Laboratory results published in EP0509845A1, “(+) and (-) enantiomers of 5-aliphatic-6-(benzoxazinyl- or benzothiazinyl)-2,3,4,5-tetrahydropyridazin-3-ones” (ORTHO PHARMACEUTICAL CORPORATION, priority 1991, dated 1992).
Read-outs that look alike come from different tables or passages of the source.

Test system: human platelet aggregation
Assay: Platelet aggregation in vitro in platelet rich plasma
Type: cell-based
Conditions: for IC50: human PRP
Description: The racemate and enantiomeric Bemoradan were tested for their effects in vitro on human platelet aggregation. Platelet rich plasma (PRP) was prepared from human donors who were free of aspirin for the preceding week. Venous blood was collected in sodium citrate vacutainer tubes and PRP was obtained by centrifuging the blood at l000 rpm for 5 min. Compounds were dissolved in methanol and added to 480 µl of PRP in a Chrono-log dual channel aggregometer l min prior to aggregant. Serotonin at 5 µM or ADP at 2 µM were the aggregating agents.

[1] = ADP at 2 µM, read-out: Antiaggregatory IC50 (µM) vs. ADP
[2] = Serotonin at 5 µM, read-out: Antiaggregatory IC50 (µM) vs. 5-HT
[3] = Table I summary, ADP at 2 µM as aggregant, read-out: Platelet aggregation (IC50) vs. ADP
[4] = Table I summary, serotonin at 5 µM as aggregant, read-out: Platelet aggregation (IC50) vs. 5-HT (serotonin)

Compound	Potency Difference (-vs+), Platelet aggregation (IC50) vs. 5-HT (serotonin) ((-) isomer versus (+) isomer)	Potency Difference (-vs+), Platelet aggregation (IC50) vs. ADP ((-) isomer versus (+) isomer)	IC50 [1]	IC50 [2]	IC50 [3]	IC50 [4]
CC1CC(=O)NN=C1c1ccc2c(c1)OCC(=O)N2 (single isomer, unassigned; isomer 6) [(-) isomer, 6-(3,4-dihydro-3-oxo-l,4(2H)-benzoxazin-7-yl)-2,3,4,5-tetrahydro-5-methyl-pyridazin-3-one]	16x	12x	0.32 µM	0.5 µM	0.32 µM	0.5 µM
CC1CC(=O)NN=C1c1ccc2c(c1)OCC(=O)N2 (single isomer, unassigned; isomer 6) [(+) isomer, 6-(3,4-dihydro-3-oxo-l,4(2H)-benzoxazin-7-yl)-2,3,4,5-tetrahydro-5-methyl-pyridazin-3-one]			3.8 µM	8 µM	3.8 µM	8 µM
